Laboratory results taken from patent US6867207B2, “IL-5 inhibiting 6-azauracil derivatives” (Janssen Pharmaceutica N.V., priority 1997, dated 2005).
Each block holds one molecule with its values, some of them ahead of it.

Experiments:
IL-5 production = assay: In vitro inhibition of IL-5 production in human blood (phytohemagglutinin-stimulated whole blood, ELISA);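 note: values marked with an asterisk were tested at 10 µM and unmarked values at 1 µM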; format: cell-based; settings: test dose 1×10^−6 M, 48 hours, read-out: % inh. (percentage inhibition of IL-5 production)
Procedure, shortened: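 Heparinised blood from healthy male donors, diluted threefold in RPMI 1640, preincubated 60 min at 37° C with compound (0.02% DMSO vehicle), then stimulated with 2 μg/mL phytohemagglutinin for 48 h. Supernatant IL-5 measured by ELISA; percentage inhibition at 1×10^−6 M or 1×10^−5 M.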

- melting point: 170 °C
SMILES: NCc1sc(C(c2ccc(Cl)cc2)c2c(Cl)cc(-n3ncc(=O)[nH]c3=O)cc2Cl)nc1-c1ccccc1 (racemic) [Compound 329, (±)-2-[4-[[5-(aminomethyl)-4-phenyl-2-thiazolyl](4-chlorophenyl)methyl]-3,5-dichlorophenyl]-1,2,4-triazine-3,5(2H,4H)-dione]
- inhibition at 1 µM (IL-5 production): 88%

- melting point: 90 °C
SMILES: O=c1cnn(-c2ccc(C(c3ccc(Cl)cc3)c3nc(-c4ccccc4)cs3)c(Cl)c2)c(=O)[nH]1 (racemic) [Compound 419, (±)-2-[3-chloro-4-[(4-chlorophenyl)(4-phenyl-2-thiazolyl)methyl]phenyl]-1,2,4-triazine-3,5(2H,4H)-dione]
- inhibition at 1 µM (IL-5 production): 5%

Further lines, the molecule ahead of its results:

SMILES: O=C(CO)Nc1ccccc1-c1nnc(C(c2ccc(Cl)cc2)c2c(Cl)cc(-n3ncc(=O)[nH]c3=O)cc2Cl)o1 (racemic) [Compound 213, (±)-N-[2-[5-[(4-chlorophenyl)[2,6-dichloro-4-(4,5-dihydro-3,5-dioxo-1,2,4-triazin-2(3H)-yl)phenyl]methyl]-1,3,4-oxadiazol-2-yl]phenyl]-2-hydroxyacetamide]
- melting point: 235 °C
- inhibition at 1 µM (IL-5 production): 32%

SMILES: CN(C)Cc1sc(C(c2ccc(Cl)cc2)c2c(Cl)cc(-n3ncc(=O)[nH]c3=O)cc2Cl)nc1-c1ccccc1F (racemic) [Compound 325, (±)-2-[4-[(4-chlorophenyl)[5-[(dimethylamino)methyl]-4-(2-fluorophenyl)-2-thiazolyl]methyl]-3,5-dichlorophenyl]-1,2,4-triazine-3,5(2H,4H)-dione]
- melting point: 250 °C
- inhibition at 1 µM (IL-5 production): 95%

SMILES: CN(C)C(=O)c1sc(C(c2ccc(Cl)cc2)c2c(Cl)cc(-n3ncc(=O)[nH]c3=O)cc2Cl)nc1-c1ccccc1 (racemic) [Compound 303, (±)-N,N-dimethyl-2-[(4-chlorophenyl)[2,6-dichloro-4-(4,5-dihydro-3,5-dioxo-1,2,4-triazin-2(3H)-yl)phenyl]methyl]-4-phenylthiazol-5-carboxamide]
- melting point: 150 °C
- inhibition at 1 µM (IL-5 production): 85%
